Measured values taken from PubChem BioAssay (NCI).
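Briefly, cells in 96-well plates were exposed to five compound concentrations for 48 h, and endpoints were estimated by linear interpolation. TGI marks complete inhibition of growth.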 *1 amine or outer side, *2 acyl side, *3 side chain or, on linkers, in order; H or OH if unused. Where a SMILES comes first, the peptide text is derived from it. [ ]: non-standard residue; d: D form. ξ: configuration not given here. Ile(3ξ) = CCC(C)[C@H](N)C(=O)O; X33 = C=CCC(O[*:1])C(=O)[*:2]; NMeV = CN[C@H](C(=O)O)C(C)C; NMeA = CN[C@@H](C)C(=O)O; βAla = NCCC(=O)O

Tests used:
Experiment in all cases: NCI tumour cell line growth inhibition, 48 h
OVCAR-3 ovarian = tested on: OVCAR-3 ovarian
HOP-18 NSCLC = tested on: HOP-18 NSCLC
EKVX NSCLC = tested on: EKVX NSCLC
MOLT-4 leukemia = tested on: MOLT-4 leukemia
NCI-H522 lung = tested on: NCI-H522 lung
ACHN renal = tested on: ACHN renal
A498 renal = tested on: A498 renal
HOP-62 NSCLC = tested on: HOP-62 NSCLC
KM12 colon = tested on: KM12 colon
SR leukemia = tested on: SR leukemia
DLD-1 colon = tested on: DLD-1 colon
DMS 273 small cell lung = tested on: DMS 273 small cell lung
DMS 114 small cell lung = tested on: DMS 114 small cell lung
CCRF-CEM leukemia = tested on: CCRF-CEM leukemia
SNB-19 CNS = tested on: SNB-19 CNS
HL-60(TB) leukemia = tested on: HL-60(TB) leukemia
SK-MEL-28 melanoma = tested on: SK-MEL-28 melanoma
SF-268 CNS = tested on: SF-268 CNS
NCI-H226 lung = tested on: NCI-H226 lung
MALME-3M melanoma = tested on: MALME-3M melanoma
SN12C renal = tested on: SN12C renal
HCC-2998 colon = tested on: HCC-2998 colon
RXF 393 renal = tested on: RXF 393 renal
SNB-75 CNS = tested on: SNB-75 CNS
LXFL 529 NSCLC = tested on: LXFL 529 NSCLC
HT29 colon = tested on: HT29 colon
IGROV1 ovarian = tested on: IGROV1 ovarian
HCT-15 colon = tested on: HCT-15 colon
KM20L2 colon = tested on: KM20L2 colon
SK-MEL-5 melanoma = tested on: SK-MEL-5 melanoma
SK-OV-3 ovarian = tested on: SK-OV-3 ovarian
M14 melanoma = tested on: M14 melanoma
HCT-116 colon = tested on: HCT-116 colon
U251 CNS = tested on: U251 CNS
786-0 renal = tested on: 786-0 renal
NCI-H23 lung = tested on: NCI-H23 lung
RXF-631 renal = tested on: RXF-631 renal
UO-31 renal = tested on: UO-31 renal
SNB-78 CNS = tested on: SNB-78 CNS
SW-620 colon = tested on: SW-620 colon
K-562 leukemia = tested on: K-562 leukemia
CAKI-1 renal = tested on: CAKI-1 renal
LOX IMVI melanoma = tested on: LOX IMVI melanoma
OVCAR-8 ovarian = tested on: OVCAR-8 ovarian
SK-MEL-2 melanoma = tested on: SK-MEL-2 melanoma
RPMI-8226 leukemia = tested on: RPMI-8226 leukemia
NCI-H460 lung = tested on: NCI-H460 lung
OVCAR-5 ovarian = tested on: OVCAR-5 ovarian
UACC-257 melanoma = tested on: UACC-257 melanoma
HOP-92 NSCLC = tested on: HOP-92 NSCLC
SF-539 CNS = tested on: SF-539 CNS
COLO 205 colon = tested on: COLO 205 colon
UACC-62 melanoma = tested on: UACC-62 melanoma
OVCAR-4 ovarian = tested on: OVCAR-4 ovarian
TK-10 renal = tested on: TK-10 renal
SF-295 CNS = tested on: SF-295 CNS
A549 NSCLC = tested on: A549 NSCLC
M19-MEL melanoma = tested on: M19-MEL melanoma
XF 498 CNS = tested on: XF 498 CNS

`COc1ccc(C(=C[N+](=O)[O-])c2ccc(OC)cc2)cc1` was tested, and the TGI (OVCAR-3 ovarian) was 46.1 µM, the TGI (HOP-18 NSCLC) was greater than 100 µM and the TGI (EKVX NSCLC) was greater than 100 µM. The TGI (MOLT-4 leukemia) was 29.3 µM, the TGI (NCI-H522 lung) was 32.7 µM and the TGI (ACHN renal) was greater than 100 µM. It also gave a TGI (A498 renal) of 41.3 µM, a TGI (HOP-62 NSCLC) of 50.6 µM and a TGI (KM12 colon) greater than 46.5 µM. The TGI (SR leukemia) was 45.1 µM, the TGI (DLD-1 colon) was greater than 84.3 µM and the TGI (DMS 273 small cell lung) was 22.9 µM. It also gave a TGI (DMS 114 small cell lung) of 23.7 µM, a TGI (CCRF-CEM leukemia) greater than 92.7 µM and a TGI (SNB-19 CNS) greater than 94.4 µM. The TGI (HL-60(TB) leukemia) was greater than 34.7 µM, the TGI (SK-MEL-28 melanoma) was greater than 100 µM and the TGI (SF-268 CNS) was greater than 100 µM. The TGI (NCI-H226 lung) was 52.4 µM, the TGI (MALME-3M melanoma) was greater than 100 µM and the TGI (SN12C renal) was greater than 100 µM. It also gave a TGI (HCC-2998 colon) of 31.5 µM, a TGI (RXF 393 renal) of 49.1 µM and a TGI (SNB-75 CNS) of 30.3 µM. The TGI (LXFL 529 NSCLC) was greater than 100 µM, the TGI (HT29 colon) was 20.1 µM and the TGI (IGROV1 ovarian) was greater than 63.3 µM. For the same compound, the TGI (HCT-15 colon) was greater than 100 µM, the TGI (KM20L2 colon) was 26.9 µM and the TGI (SK-MEL-5 melanoma) was greater than 100 µM. The TGI (SK-OV-3 ovarian) was 36.2 µM, the TGI (M14 melanoma) was 41.8 µM and the TGI (HCT-116 colon) was 27.8 µM. For the same compound, the TGI (U251 CNS) was 17.9 µM, the TGI (786-0 renal) was greater than 89 µM and the TGI (NCI-H23 lung) was greater than 57.1 µM. For the same compound, the TGI (RXF-631 renal) was greater than 100 µM, the TGI (UO-31 renal) was 88.9 µM and the TGI (SNB-78 CNS) was greater than 84.5 µM. It also gave a TGI (SW-620 colon) greater than 73.3 µM, a TGI (K-562 leukemia) greater than 100 µM and a TGI (CAKI-1 renal) greater than 100 µM. It also gave a TGI (LOX IMVI melanoma) of 46.4 µM, a TGI (OVCAR-8 ovarian) of 37.9 µM and a TGI (SK-MEL-2 melanoma) of 33.3 µM. It also gave a TGI (RPMI-8226 leukemia) of 26.3 µM, a TGI (NCI-H460 lung) of 54.7 µM and a TGI (OVCAR-5 ovarian) of 99.5 µM. The TGI (UACC-257 melanoma) was greater than 92.6 µM, the TGI (HOP-92 NSCLC) was greater than 100 µM and the TGI (SF-539 CNS) was 29.3 µM. The TGI (COLO 205 colon) was 15.5 µM, the TGI (UACC-62 melanoma) was greater than 100 µM and the TGI (OVCAR-4 ovarian) was greater than 100 µM. For the same compound, the TGI (TK-10 renal) was 99.3 µM, the TGI (SF-295 CNS) was 25.1 µM and the TGI (A549 NSCLC) was greater than 100 µM.
Work on `C=CCC1OC(=O)CCNC(=O)[C@H](C)N(C)C(=O)[C@H](C(C)C)N(C)C(=O)[C@H](C(C)CC)NC(=O)[C@@H]2CCCN2C1=O` (some centres undefined) (cyclo([Ile(3ξ)][NMeV][NMeA][βAla][X33]P)) yielded a TGI (OVCAR-3 ovarian) greater than 100 µM, a TGI (EKVX NSCLC) greater than 100 µM and a TGI (MOLT-4 leukemia) greater than 100 µM. The TGI (ACHN renal) was greater than 100 µM, the TGI (A498 renal) was greater than 100 µM and the TGI (HOP-62 NSCLC) was greater than 21 µM. For the same compound, the TGI (M19-MEL melanoma) was greater than 67.6 µM, the TGI (KM12 colon) was greater than 100 µM and the TGI (SR leukemia) was greater than 100 µM. For the same compound, the TGI (DLD-1 colon) was greater than 100 µM, the TGI (DMS 273 small cell lung) was 28.9 µM and the TGI (DMS 114 small cell lung) was greater than 100 µM. The TGI (CCRF-CEM leukemia) was greater than 100 µM, the TGI (SNB-19 CNS) was greater than 100 µM and the TGI (HL-60(TB) leukemia) was greater than 100 µM. The TGI (SK-MEL-28 melanoma) was greater than 100 µM, the TGI (SF-268 CNS) was 58.4 µM and the TGI (NCI-H226 lung) was 29.2 µM. The TGI (MALME-3M melanoma) was 16.5 µM, the TGI (SN12C renal) was greater than 100 µM and the TGI (HCC-2998 colon) was 27.7 µM. The TGI (RXF 393 renal) was greater than 100 µM, the TGI (SNB-75 CNS) was greater than 90.5 µM and the TGI (LXFL 529 NSCLC) was greater than 100 µM. The TGI (HT29 colon) was greater than 100 µM, the TGI (IGROV1 ovarian) was greater than 100 µM and the TGI (HCT-15 colon) was greater than 100 µM. The TGI (KM20L2 colon) was greater than 52 µM, the TGI (SK-MEL-5 melanoma) was 10.4 µM and the TGI (SK-OV-3 ovarian) was greater than 100 µM. For the same compound, the TGI (M14 melanoma) was 7.87 µM, the TGI (HCT-116 colon) was greater than 100 µM and the TGI (U251 CNS) was greater than 100 µM. For the same compound, the TGI (786-0 renal) was greater than 100 µM, the TGI (NCI-H23 lung) was greater than 100 µM and the TGI (RXF-631 renal) was greater than 100 µM. The TGI (UO-31 renal) was 99.6 µM, the TGI (XF 498 CNS) was 41.8 µM and the TGI (SNB-78 CNS) was greater than 100 µM. For the same compound, the TGI (SW-620 colon) was greater than 100 µM, the TGI (K-562 leukemia) was greater than 71.6 µM and the TGI (CAKI-1 renal) was greater than 78.6 µM. The TGI (LOX IMVI melanoma) was greater than 31.7 µM, the TGI (OVCAR-8 ovarian) was greater than 100 µM and the TGI (SK-MEL-2 melanoma) was 12.6 µM. The TGI (RPMI-8226 leukemia) was greater than 100 µM, the TGI (NCI-H460 lung) was greater than 100 µM and the TGI (OVCAR-5 ovarian) was greater than 100 µM. It also gave a TGI (UACC-257 melanoma) of 36.3 µM, a TGI (HOP-92 NSCLC) greater than 30.9 µM and a TGI (SF-539 CNS) greater than 79.4 µM. It also gave a TGI (COLO 205 colon) greater than 100 µM, a TGI (UACC-62 melanoma) greater than 46.2 µM and a TGI (OVCAR-4 ovarian) greater than 100 µM. It also gave a TGI (TK-10 renal) greater than 100 µM, a TGI (SF-295 CNS) greater than 100 µM and a TGI (A549 NSCLC) greater than 100 µM.
